Results published in patent US8481757B2, “Compounds and compositions useful in the treatment of malaria” (Georgua Tech Research Corporation, priority 2010, dated 2013).
Where two headings read alike, the source gives them in different places.

Tests used:
[1] = system: Plasmodium falciparum parasites (3D7 strain); conditions: from Hawley et al. (Antimicrob Agents Chemother 1998, 42: 682); cited from earlier work
heme crystallization = assay: Inhibition of heme crystallization; format: biochemical; conditions: molar equivalents of drug to heme
[2] = system: Plasmodium falciparum HB3 (chloroquine-sensitive parasite); conditions: from Hawley et al. (Antimicrob Agents Chemother 1998, 42: 682); cited from earlier work
Cytotoxicity, J774 = format: cell-based; conditions: mouse, J774 cells
[3] = system: Plasmodium falciparum HB3 (chloroquine-sensitive parasite); assay: Efficacy against Plasmodium falciparum HB3; format: cell-based
Cytotoxicity, HepG2 = format: cell-based; conditions: human, HepG2 cells
[4] = system: Plasmodium falciparum parasites (3D7 strain); assay: SYBR Green based parasite proliferation assay (antimalarial activity); format: cell-based
[5] = system: Plasmodium falciparum Dd2 (chloroquine-resistant parasite); assay: Efficacy against Plasmodium falciparum Dd2; format: cell-based
Cytotoxicity, Vero = format: cell-based; conditions: African green monkey, Vero cells
[6] = Plasmodium falciparum, 3D7, Table 5, Example 5 numbering (1-13), read-out: P. falciparum (3D7) IC50
[7] = Plasmodium falciparum, 3D7, Table 1, Example 1 numbering (1-18), read-out: Antimalarial IC50

Molecule: CCN(CC)Cc1cc(Nc2ccnc3cc(Cl)ccc23)ccc1O [AMQ, amodiaquine]
- IC50 [1]: 7.8 nM
- IC50 for heme crystallization (heme crystallization): 1.2 ± 0.19 equivalents
- IC50 [2]: 8.5 nM

Molecule: CC1=C2Cc3cc(ccc3O)C(=O)O[C@H](C(C)(C)Br)CC[C@](C)(O)[C@H](Br)CC[C@]2(C)[C@@H](Br)CC1 [Compound 1]
- IC50 (Cytotoxicity, J774): 19000 nM
- IC50 [3]: 565 nM
- IC50 for heme crystallization (heme crystallization): 2.5 ± 0.13 equivalents
- IC50 (Cytotoxicity, HepG2): 21300 nM
- IC50 [4, 6]: 650 nM
- IC50 ([4]; Plasmodium falciparum, 3D7, chloroquine-sensitive parasite, Table 6, Example 5 numbering, read-out: 3D7 IC50): 658 nM
- IC50 ([4]; Table 5, Example 5 numbering (1-13), read-out: P. falciparum (3D7) IC50): 660 nM
- IC50 [5]: 497 nM
- IC50 (Cytotoxicity, Vero): 34600 nM

Molecule: CC1=C2Cc3cc(ccc3O)C(=O)O[C@H](C(C)(C)Br)CC[C@](C)(O)/C=C\C[C@]2(C)C=CC1 [Compound 11]
- IC50 [4, 6]: 4600 nM

Molecule: C=C1CC[C@H](Br)[C@@]2(C)CC[C@@H]3O[C@@]3(C)CC[C@@H](C(C)(C)O)OC(=O)c3ccc(O)c(c3)C[C@H]12 [Compound 14]
- IC50 [4, 7]: 18000 nM

Molecule: CC1=CC[C@@H]2O[C@@]2(C)CC[C@@H](C(C)(C)O)OC(=O)c2ccc(O)c(c2)CC2=C(C)CCC12 (stereo partly shown) [Compound 18]
- IC50 [4, 7]: > 100000 nM

Molecule: debromophycolide A [Compound 18 (Example 1)]
- IC50 ([4]; Table 4, Example 3 numbering (1-3), read-out: Antimalarial activity IC50): > 100000 nM
